From publication PMC8151276, “An Integrated Approach toward NanoBRET Tracers for Analysis of GPCR Ligand Engagement” (Molecules, 2021)

What was measured:
[1] = target: T1, NPFFR1 (Homo sapiens, UniProt Q9GZQ6); test: NanoBRET screen HiBiT-NPFFR1 in HEK293; type: binding
T1 construct: purchased Promega (in-house HiBiT-GPCR construct library, NanoBRET)
Description: (§1) Each tracer candidate was screened across the entire library of HiBiT-GPCR constructs using NanoBRET as the detection modality. As depicted in Figure 4A, the specificity of interactions was evaluated through decrease in BRET due to competitive displacement of a bound tracer by excess parental compound. Each tracer was analyzed for binding to each HiBiT-GPCR fusion in the absence and in the presence of competing parental compound. Briefly, HEK293 cells were transfected with HiBiT-GPCR constructs diluted into promoterless DNA to reduce expression and maximize translocation to the cell surface. Each tracer candidate was then screened at concentrations of 1 μM and 0.1 μM across cells expressing these fusions. Cells were treated for 1.5 h with tracer either alone or in the presence of 20 μM competing parental compound (i.e., control). BRET was measured upon addition of purified LgBiT and subsequent complementation with HiBiT genetically fused to a GPCR. The specificity of interactions was assessed through a decrease in BRET signal due to competitive displacement of the bound tracer. To further gauge the robustness of these interactions, the fold response over the control (i.e., BRETtracer/BRETcontrol) was calculated. We chose a 1.5-fold response, which translates to ≥7-fold signal over noise as the minimal threshold required to score an interaction as positive.
(§2) HiBiT-GPCR DNA constructs were diluted in 10 mM Tris pH 8 to a final concentration of 0.01 μg/μL, arrayed in 96-well plates and stored at −20 °C. For transfection, HEK293 cells were suspended in Opti-MEM (without phenol red) supplemented with 2% fetal bovine serum (Seradigm) and 100 units/mL penicillin–streptomycin (Gibco) at a final concentration of 220,000 cells/mL and dispensed into white 96-well plates at 90 μL/well. Subsequent transfections and screens were carried using an Agilent Bravo Automated Liquid Handling Platform. First, the 96-well HiBiT DNA arrays were diluted 25-fold in Opti-MEM (without serum or phenol red) to a final concentration of 0.0004 μg/μL and 20 μL of the diluted DNAs were transferred into new 96-well plates. Next, promoterless carrier DNA (1 μg/μL) was diluted 25-fold (0.04 μg/μL) and then dispensed into the diluted arrays at 20 μL/well. Following brief mixing, Viafect transfection reagent (Promega) diluted 16-fold into Opti-MEM was dispensed into the plates at 40 μL/well. After mixing by pipetting, plates were incubated for 10 min on the pipetting station deck. The DNA-transfection reagent complexes were then added to plates containing cells. To facilitate the screen, 10 μL of DNA-transfection reagent complexes were added in duplicates to the top 4 and bottom 4 rows, resulting in two identical 48-well arrays per plate. Plates with transfected cells were incubated for 18–20 h at 37 °C/5% CO2. A screen of each tracer across the entire library using two different concentrations requires duplicate plates of transfected cells. Depending on the number of tracers being screened, transfections can be scaled up using the same ratios. The next day, for each tracer, four 20× screening solutions in tracer dilution buffer (Promega) were prepared: two duplicates at final concentration of 20 μM and two duplicates at a final concentration of 2 μM. […] The four resulting solutions were diluted 4-fold in Opti-MEM without serum or phenol red to generate 5× solutions (5 µM and 0.5 µM tracer +/− 100 μM competing compound). To screen the library, a BioTek MultiFlo FX liquid dispenser was used to dispense 22.5 µL of tracer solution to the top 4 rows and 22.5 µL tracer + competing compound solution to the 4 bottom rows. Plates were briefly mixed on an orbital shaker and incubated for 1.5 h at room temperature. […] Plates were briefly mixed on an orbital shaker and incubated for 15 min to allow complementation.

[2] = target: T2, ADCYAP1R1 (Homo sapiens, UniProt P41586); test: NanoBRET screen HiBiT-ADCYAP1R1 in HEK293; type: binding; details: ADCYAP1R1
T2 construct: purchased Promega (in-house HiBiT-GPCR construct library, NanoBRET)
T2 sequence (P41586 21-468): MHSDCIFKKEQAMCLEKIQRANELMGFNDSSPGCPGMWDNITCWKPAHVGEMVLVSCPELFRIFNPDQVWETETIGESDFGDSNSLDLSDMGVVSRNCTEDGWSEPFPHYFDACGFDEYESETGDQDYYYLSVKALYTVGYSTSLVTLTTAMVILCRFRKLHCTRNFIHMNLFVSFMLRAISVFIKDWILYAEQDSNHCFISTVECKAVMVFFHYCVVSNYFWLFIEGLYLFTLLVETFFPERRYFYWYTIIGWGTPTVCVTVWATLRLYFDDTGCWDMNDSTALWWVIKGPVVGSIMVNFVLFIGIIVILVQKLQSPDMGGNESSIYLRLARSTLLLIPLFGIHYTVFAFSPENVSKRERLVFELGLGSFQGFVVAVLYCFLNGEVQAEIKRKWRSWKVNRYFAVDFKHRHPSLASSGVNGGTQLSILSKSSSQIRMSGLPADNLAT
Description: as §1, §2

T1 sequence (Q9GZQ6 whole entry): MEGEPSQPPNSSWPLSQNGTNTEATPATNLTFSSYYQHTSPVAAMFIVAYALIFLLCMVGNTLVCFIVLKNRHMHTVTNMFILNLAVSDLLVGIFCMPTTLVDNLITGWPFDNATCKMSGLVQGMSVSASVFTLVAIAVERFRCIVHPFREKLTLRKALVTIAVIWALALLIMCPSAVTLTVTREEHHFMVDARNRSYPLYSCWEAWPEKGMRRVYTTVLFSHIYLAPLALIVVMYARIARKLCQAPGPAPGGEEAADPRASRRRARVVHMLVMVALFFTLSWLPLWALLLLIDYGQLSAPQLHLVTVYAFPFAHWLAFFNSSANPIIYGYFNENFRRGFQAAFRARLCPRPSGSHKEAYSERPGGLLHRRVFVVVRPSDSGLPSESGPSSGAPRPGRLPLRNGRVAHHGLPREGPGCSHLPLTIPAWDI

Row | Structure (SMILES) | NanoBRET Fold Response ([1]; NPFFR1, tracer 0.1μM) | NanoBRET Fold Response ([1]; NPFFR1, tracer 1μM) | NanoBRET Fold Response ([2]; tracer 0.1μM) | NanoBRET Fold Response ([2]; tracer 1μM) | NanoBRET Fold Response ([1]; tracer at 0.1μM)
1 | Cc1nc2n(c(=O)c1CCN1CCC(c3noc4cc(F)ccc34)CC1)CCCC2OC(=O)NCCOCCOCCOCCOCCNC(=O)CCc1ccc2n1[B-](F)(F)[N+]1=C(c3ccc[nH]3)C=CC1=C2 (stereo not shown) [Risperidone-2-NB590] | 0.97 | 0.95 | 0.99 | 1.02 | –
2 | CN(C)CCC=C1c2ccccc2CCc2ccc(C(=O)NCCNC(=O)CCOCCOCCOCCOCCNC(=O)CCc3ccc4n3[B-](F)(F)[N+]3=C(c5ccc[nH]5)C=CC3=C4)cc21 [Amitriptyline-b-2-NB590] | – | – | 0.99 | 0.99 | 0.98
